Laboratory results: patent US20230391727A1, “ANALOGUES OF PENTAMIDINE AND METHODS FOR TREATING INFECTIONS” (Auransa Inc., priority 2020, published 2023)
In brackets after ≈: the same amount, converted by molar mass. Where two headings read alike, the source gives them in different places.

Experiments:
[1] = test system: K. pneumoniae ATCC 43816; test: Checkerboard assay with rifampicin (FIG. 4); type: cell-based, Klebsiella pneumoniae; conditions: K. pneumoniae ATCC 43816, FIG. 4
[2] = test system: NCI H69 cells; test: CellTiter-Glo cell viability assay (cytotoxicity), 8 days; type: cell-based; conditions: Homo sapiens, 192 h, full growth media
Protocol: The experiment tested pentamidine, Compounds 1-6 in full growth media for 8 days. NCI H69 cells were initially treated with the test compounds on Day 0, and the cells were then replenished with fresh compound dilutions on Day 3. Pentamidine and Compound 1 were tested at 9 concentration points: 100 μM, 33.33 μM, 11.11 μM, 3.70 μM, 1.23 μM, […], 0.05 μM, and 0.02 μM (final DMSO concentration=0.5%). The raw data values from the CellTiter-Glo™ cell viability assay expressed in relative luminescence units were normalized to the vehicle for each individual plate, and any reduction in luminescence indicated a decrease in viability (%). The data was analyzed in GraphPad PRISM using a non-linear sigmoidal plot with variable slope (asymmetric four-point […]), and an IC50 value for each compound was generated based on the normalized dose-response curves and shown in Table 1.

[3] = test system: A. baumannii ATCC 17978; test: Checkerboard assay with novobiocin (FIGS. 2, 3, 5, 6); type: cell-based, Acinetobacter baumannii
Source text: Novobiocin is an anti-staphylococcal drug, but with limited use. The oral form of novobiocin drug has since been withdrawn from the market due to lack of efficacy. This antibiotic is often used to treat Staphylococcus aureus infection, particularly methicillin resistant S. aureus “MRSA”.

[4] = test system: S. aureus VRS-2; test: S. aureus VRS-2 peritonitis infection model; type: in vivo, female ICR mice; conditions: 50 mg/kg PO QD, 1 h post-infection, p<0.05
Protocol: The efficacy of compound 3 was evaluated in the S. aureus VRS-2 peritonitis infection model. The test article, compound 3 at 0.1, 0.3 and 1 mg/kg, was intraperitoneally (IP) administered twice at 2 and 16 h after infection; as well as once at 2 mg/kg at 2 h post-infection. The control reference agent, linezolid at 50 mg/kg, was orally (PO) administered once at 1 h post-infection. […] All animals in the vehicle group succumbed to infection between Day 1 to Day 2, resulting in 100% mortality, and a mean 15 h survival time. […] In the compound 3 at 1 mg/kg IP BID dose group, one out of eight animals survived till Day 7 of the study period, resulting in 13% survival rate, and a mean 33 h survival time.
For efficacy testing, the 0.4 mg/mL compound 3 solution was prepared by dissolving 1.21 mg of compound 3, corresponding to active ingredient of 1.02 mg with a correction factor of 1.19, in 2.55 mL of WFI. The 0.4 mg/mL compound 3 working solution was further diluted with WFI to generate three lower dosing solutions of 0.2, 0.06 and 0.02 mg/mL. All dosing solutions were soluble and colorless.
PDS supplied vancomycin and linezolid as reference controls for both MIC and in vivo studies. […] The 3.2 mg/mL linezolid 50× stock solution was prepared by dissolving 1.0 mg of linezolid in 0.313 mL of DMSO. Both solutions were colorless and soluble. For efficacy testing, one tablet of linezolid, at 600 mg, was dissolved in 12 mL of 1% Tween 80 in saline (0.9% NaCl) to generate a 50 mg/mL of stock solution. The 50 mg/mL linezolid stock solution was further diluted with 1% Tween 80 in 0.9% NaCl to generate the dosing solution of 5 mg/mL. Both solutions were insoluble with white color.
The S. aureus strain VRS-2 peritonitis infection model was performed with immunocompetent female ICR mice, weighing 22±2 g. All animals were specific pathogen free. The PDS standard protocol for preparing S. aureus cultures for mouse infection studies was followed. A 0.2 mL aliquot of a single-use glycerol stock (at −80° C.) was used to seed […] heart infusion (BHI) and then incubated at 35-37° C. with shaking (250 rpm) for 8 h. Bacterial cells in the 20 mL was pelleted by centrifugation (3,500×g) for 15 minutes, and then re-suspended in 10 mL cold phosphate buffer saline (PBS). The optical density, OD620 nm, was measured and used to guide dilution. The PBS suspensions were stored on ice for no more than 1 h prior to animal inoculation. The dilutions were performed by 1:1 dilution of BHI broth containing hog gastric mucin to obtain the target inoculum density, 1×10^8 CFU/mouse, per 0.5 mL with 5% mucin (final concentration). The actual colony count was determined by plating dilutions to nutrient agar (NA) plates followed by 20-24 h incubation at 35-37° C.
On Day 0, animals were infected with bacterial suspension with 5% mucin by intraperitoneal injection. The actual inoculum was 1.93×10^8 CFU/mouse with a target inoculum of 1×10^8 CFU/mouse in the peritonitis infection model. Test article, compound 3, was formulated in WFI and intraperitoneally (IP) administered with the dose schedule and concentrations indicated in the study design. Doses were administered once at 2 h post-infection or twice (BID) at 2 and 16 h post-infection. The animals were monitored for survival up to 7 days, twice daily (AM 9:00/PM 17:00). […]
Animals were monitored for mortality twice daily (AM 9:00/PM 17:00) for 7 days after infection. […]

[5] = test system: S. aureus ATCC 43300; test: MIC assay against gram positive S. aureus; type: cell-based; conditions: Staphylococcus aureus, ATCC43300
Protocol: (§1) Then the compound stocks were serially 2-fold diluted in a v-bottom 96-well plate to make 100-fold working solutions. One day before the test, −80° C. glycerol stock of S. aureus strains were streaked on cation-adjusted Mueller-Hinton agar (CAMHA) plates. On the day of test, fresh bacterial colonies were suspended into sterile saline to an OD600 nm of ˜0.1 (equivalent to 0.5 McFarland). The bacterial suspension was firstly 20-fold followed by 50-fold diluted in cation-adjusted Mueller-Hinton broth (CAMHB) plates to 1×10^6 CFU/PO. 198 ul of the inoculum was added into the round-bottom 96-well plates prefilled with 2 ul of 100-fold compound working solutions. After incubating at 35 +/−2° C. in ambient atmosphere for 18-24 h, MIC was recorded as the lowest concentration under which no visible bacterial growth was observed.

[6] = test system: S. aureus ATCC 27660; test: MIC assay against gram positive S. aureus; type: cell-based; conditions: Staphylococcus aureus, ATCC27660
Protocol: as §1

[7] = test system: Staphylococcus aureus ATCC 19636; test: MIC assay against gram positive and antibiotic-resistant S. aureus; type: cell-based; conditions: ATCC19636; Staphylococcus aureus ATCC 19636; read-out: MIC
Protocol: (§2) The MICs of vancomycin and linezolid were determined as quality controls and the MIC values of each strain met the acceptance criteria based on PDS historical reference data.
(§3) The direct colony suspension method was used to prepare inoculated broth. Isolated colonies were taken from an 18-24 h culture plate. Optical density measurements (OD620 nm) were used to estimate the bacterial density. The test article, compound 3, and reference control stock solutions were prepared in 100% DMSO as 50× stock solutions. The 50× stock solutions were diluted by 2-fold serial titrations with 100% DMSO for a total of 11 concentrations. A 4 μL aliquot of each dilution was added to 196 μL of cation-adjusted Mueller Hinton Broth II medium seeded with the organism in wells of a 96 well plate. The final vehicle concentration was two percent (2%) in all assay wells. The final bacterial count was 2 to 8×10^5 CFU/mL. The final compound 3 concentration range was 16 to 0.016 μg/mL. Each test substance dilution was evaluated in duplicate on one test occasion. Vehicle-control and reference controls were used as blank and positive controls, respectively. Plates were incubated at 35-37° C. for 18 h. The test plates were visually examined and each well was visually scored for growth or complete inhibition of growth. The MIC value was recorded.

[8] = test system: Staphylococcus aureus BAA-1556 (MRSA); test: as above; type: cell-based; conditions: Staphylococcus aureus BAA-1556, MRSA; read-out: MIC
Protocol: as §2, §3

[9] = test system: Staphylococcus aureus ATCC 33591 (MRSA); test: as above; type: cell-based; conditions: Staphylococcus aureus ATCC 33591, MRSA; read-out: MIC
Protocol: as §2, §3

[10] = test system: Staphylococcus aureus VRS-2 (VRSA); test: as above; type: cell-based; conditions: Staphylococcus aureus VRS-2, VRSA; read-out: MIC
Protocol: as §2, §3

[11] = test system: Aspergillus fumigatus AF2; test: Anti-fungal MIC assay; type: cell-based
Protocol: (§4) The first round of testing included Candida parapsilosis, Candida krusei, Paecilomyces variotii, Candida albicans, Aspergillus fumigatus, and Blastomyces dermatitidis. […] The second round of testing included Candida parapsilosis, Candida krusei, Candida albicans, Candida auris, Candida glabrata, Candida guilliermondii, and Cryptococcus neoformans.
(§5) Stock solutions of the investigational agent were prepared at concentrations 100-times the highest concentration to be tested (6400 μg/ml) using dimethyl sulfoxide. Aliquots of the stock solutions were dispensed into polystyrene vials and stored at −20° C.
(§6) The synthetic medium RPMI-1640 (with glutamine, without bicarbonate, and with phenol red) was used. The RPMI was buffered to a pH of 7.0+0.1 at 25° C. with 0.165M MOPS (3-[N-morpholino] propanesulfonic acid). Sterile U-shaped 96-well cell culture plates were used to perform the MIC assays. Dilutions of the DMSO stocks were prepared in RPMI to achieve 2× concentrations. After the dilutions of the working 2× investigational antifungal solutions were prepared, 0.1 ml of each concentration was transferred into a pre-specified column of the U-shaped 96-well cell culture plate using sterile pipettes.
(§7) Fungal isolates were grown on Sabouraud dextrose agar (yeasts) or potato flake agar (filamentous fungi) and cells were collected after an appropriate period of growth for each species being evaluated (e.g., 48-72 hours for yeasts and 7 days for filamentous fungi). The fungi were suspended in sterile distilled water, and the densities of the fungal suspension were read using a spectrophotometer and adjusted to an appropriate optical density specific for each fungal species. The fungal suspension of each isolate was then diluted in RPMI. A sufficient volume of the test inoculum was prepared to directly inoculate 0.1 ml into each test well of the 96-well cell culture plate. Final inoculum ranges were dependent on the fungal species to be tested (e.g., 0.4×103 to 5×10^3 cells/ml for yeasts and dimorphic fungi, and 0.4×104 to 5×10^4 cells/ml for filamentous fungi). Each well of the 96-well cell culture plate containing the investigational antifungal compounds (0.1 ml volume) was inoculated on the day of the assay with 0.1 ml of the fungal suspension. Growth control wells contained 0.1 ml of fungal suspension and 0.1 ml of the growth medium without antifungal agents. The media control well contained 0.2 ml of the growth medium.
(§8) The microdilution trays were incubated at 35° C. without agitation. […] One positive comparator/control was used for yeast (fluconazole) and one was used for filamentous fungi (voriconazole).

[12] = test system: Blastomyces dermatitidis BD3; test: Anti-fungal MIC assay; type: cell-based
Protocol: as §4, §5, §6, §7, §8

[13] = test system: Blastomyces dermatitidis BD2; test: Anti-fungal MIC assay; type: cell-based
Protocol: as §4, §5, §6, §7, §8

[14] = test system: Candida krusei ATCC6258; test: Anti-fungal MIC assay; type: cell-based; conditions: Pichia kudriavzevii, first round (Table 5)
Protocol: as §4, §5, §6, §7, §8

[15] = test system: Aspergillus fumigatus AF293; test: Anti-fungal MIC assay; type: cell-based; conditions: read-out: MIC, 50% growth inhibition
Protocol: as §4, §5, §6, §7, §8

[16] = test system: Blastomyces dermatitidis BD1; test: Anti-fungal MIC assay; type: cell-based
Protocol: as §4, §5, §6, §7, §8

[17] = test system: Aspergillus fumigatus AF3; test: Anti-fungal MIC assay; type: cell-based
Protocol: as §4, §5, §6, §7, §8

[18] = read-out: MIC, 50% growth inhibition
[19] = read-out: MIC, 100% growth inhibition

## N=C(N)c1cccc(CCCCCCCc2cccc(C3CCNC3)c2)c1 (centres unmarked) [Compound 2, 3-(7-(3-(pyrrolidin-3-yl)phenyl)heptyl)benzimidamide]
[1]
  synergy with rifampicin: increased level of synergy
[2]
  IC50: 1.5 µM
[3]
  synergistic effect with novobiocin: clear synergistic effects
  synergy with novobiocin as compared to pentamidine with novobiocin: superior synergy
[3]; Acinetobacter baumannii, ATCC17978, substance alone
  MIC: 138 µM

## CC(=O)NC[C@H]1CN(c2ccc(N3CCOCC3)c(F)c2)C(=O)O1 [Linezolid, reference compound]
[4]
  survival rate: 100%
[4]; maximum set at 180 h
  mean survival time: 180 h
[5]
  MIC: 4 µg/mL (≈ 11.9 µM)
[6]
  MIC: 4 µg/mL (≈ 11.9 µM)
[7]
  MIC: 4 µg/mL (≈ 11.9 µM)
[8]
  MIC: 2 µg/mL (≈ 5.93 µM)
[9]
  MIC: 2 µg/mL (≈ 5.93 µM)
[10]
  MIC: 4 µg/mL (≈ 11.9 µM)

## C[C@@H](c1ncncc1F)[C@](O)(Cn1cncn1)c1ccc(F)cc1F [Voricolazole, voriconazole, reference compound]
[11]; [18]
  MIC: > 16 µg/mL
[11]; [19]
  MIC: > 16 µg/mL
[12]; [18]
  MIC: ≤ 0.03 µg/mL
[12]; [19]
  MIC: 0.125 µg/mL (≈ 0.358 µM)
[13]; [18]
  MIC: ≤ 0.03 µg/mL
[13]; [19]
  MIC: 0.125 µg/mL (≈ 0.358 µM)
[14]; ATCC6258, Candida krusei ATCC6258, read-out: MIC, 50% growth inhibition
  MIC: ≤ 0.03 µg/mL
[14]; ATCC6258, read-out: MIC, 100% growth inhibition, Candida krusei ATCC6258
  MIC: 0.125 µg/mL (≈ 0.358 µM)
[15]
  MIC: 0.25 µg/mL (≈ 0.716 µM)
[16]; [18]
  MIC: ≤ 0.03 µg/mL
[16]; [19]
  MIC: 0.06 µg/mL (≈ 0.172 µM)
[17]; [18]
  MIC: 2 µg/mL (≈ 5.73 µM)
[17]; [19]
  MIC: 4 µg/mL (≈ 11.5 µM)
